# In patent publication US11365196B2, “FGFR inhibitor and application thereof” (Betta Pharmaceuticals Co., Ltd., priority 2017, dated 2022):
# Read-outs that look alike come from different tables or passages of the source.
# Columns and labels:
# NCI-H1581 cells = assay: Cell proliferation assay on NCI-H1581 (Table 7); format: cell-based, human; settings: Homo sapiens
# Source text: Test method: adding the appropriate volume of whole medium and the cells was suspended.
# FGFR1 = FGFR1 (Homo sapiens (Human), UniProt P11362); assay: Kinase assay Method 1, mobility shift assay; settings: read-out: IC50(nM) value of compounds FGFR1; mobility shift assay, ATP at Km; class symbols
# FGFR1, sequence (P11362 22-822): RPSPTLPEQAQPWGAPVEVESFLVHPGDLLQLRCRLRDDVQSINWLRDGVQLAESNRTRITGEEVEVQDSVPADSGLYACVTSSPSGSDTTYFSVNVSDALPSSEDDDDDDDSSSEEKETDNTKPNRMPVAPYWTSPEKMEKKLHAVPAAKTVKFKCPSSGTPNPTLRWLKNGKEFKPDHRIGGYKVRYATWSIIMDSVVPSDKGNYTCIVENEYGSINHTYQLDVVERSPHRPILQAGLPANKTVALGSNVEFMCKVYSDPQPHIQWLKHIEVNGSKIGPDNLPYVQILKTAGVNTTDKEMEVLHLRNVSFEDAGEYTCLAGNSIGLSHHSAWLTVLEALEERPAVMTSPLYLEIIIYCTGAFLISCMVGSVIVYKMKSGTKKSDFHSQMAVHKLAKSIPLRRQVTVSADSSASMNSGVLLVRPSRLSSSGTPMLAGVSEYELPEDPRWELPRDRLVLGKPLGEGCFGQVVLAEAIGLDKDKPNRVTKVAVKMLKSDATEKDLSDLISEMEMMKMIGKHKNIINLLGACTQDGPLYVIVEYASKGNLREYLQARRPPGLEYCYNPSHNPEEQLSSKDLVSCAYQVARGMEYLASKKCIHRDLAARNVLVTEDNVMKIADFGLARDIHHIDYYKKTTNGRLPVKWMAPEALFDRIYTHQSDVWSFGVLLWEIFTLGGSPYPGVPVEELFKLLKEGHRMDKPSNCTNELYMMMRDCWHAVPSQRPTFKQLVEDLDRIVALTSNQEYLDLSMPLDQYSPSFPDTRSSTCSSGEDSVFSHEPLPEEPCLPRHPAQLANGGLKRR
# Method: Method 1: The inhibitory activity of some compounds of the present disclosure against FGFR1, FGFR2, FGFR3, FGFR4, KDR was tested by mobility shift assay (concentration of ATP is Km value).
# Preparing of compounds: dilute test compounds to specific concentration using 100% DMSO
# [1] = NCI-H1581, CellTiter 96 AQueous (144 hrs) or CellTiter Glo (96 hrs), class symbols, read-out: IC50(nM) value of compounds on NCI-H1581 cells
# [2] = NCI-H1581, read-out: IC50(nM) value of compounds on NCI-H1581 cells
Compound,IC50 (NCI-H1581 cells; [1]),IC50 (FGFR1),IC50 (NCI-H1581 cells; [2])
"COc1cc(OC)c(Cl)c(-c2cc3cnc(Nc4ccc(N5CCN(C(C)C)CC5)cc4)nc3n3cnnc23)c1 [Compound 11, 6-(2-chloro-3,5-dimethoxyphenyl)-N-(4-(4-isopropylpiperazin-1-yl)phenyl)-[1,2,4]triazolo[4′,3′:1,6]pyrido[2,3-d]pyrimidin-2-amine]",< 1 nM,< 1 nM,
"COc1cc(OC)c(Cl)c(-c2cc3cnc(Nc4ccc(N5CCN(C6COC6)CC5)cc4)nc3n3cnnc23)c1 [Compound 13, 6-(2-chloro-3,5-dimethoxyphenyl)-N-(4-(4-(oxetan-3-yl)piperazin-1-yl)phenyl)-[1,2,4]triazolo[4′,3′:1,6]pyrido[2,3-d]pyrimidin-2-amine]",1 to 10 nM,< 1 nM,
"COc1cc(OC)c(Cl)c(-c2cc3cnc(Nc4ccc(N5CCC(N(C)C)CC5)cc4)nc3n3cnnc23)c1 [Compound 14, 6-(2-chloro-3,5-dimethoxyphenyl)-N-(4-(4-(dimethylamino)piperidin-1-yl)phenyl)[1,2,4]triazolo[4′,3′:1,6]pyrido[2,3-d]pyrimidin-2-amine]",< 1 nM,< 1 nM,
"COc1cc(OC)c(Cl)c(-c2cc3cnc(Nc4ccc(N5CCN(C)CC5)cc4)nc3n3cnnc23)c1 [Compound 15, 6-(2-chloro-3,5-dimethoxyphenyl)-N-(4-(4-methylpiperazin-1-yl)phenyl)-[1,2,4]triazolo[4′,3′:1,6]pyrido[2,3-d]pyrimidin-2-amine]",< 1 nM,< 1 nM,
"COc1cc(OC)c(Cl)c(-c2cc3cnc(Nc4ccc(N5CCN(C)CC5)cn4)nc3n3cnnc23)c1 [Compound 16, 6-(2-chloro-3,5-dimethoxyphenyl)-N-(5-(4-methylpiperazin-1-yl)pyridin-2-yl)-[1,2,4]triazolo[4′,3′:1,6]pyrido[2,3-d]pyrimidin-2-amine]",10 to 100 nM,> 10 nM,
"CCN1CCN(Cc2ccc(Nc3ncc4cc(-c5cc(OC)cc(OC)c5Cl)c5nncn5c4n3)nc2)CC1 [Compound 17, 6-(2-chloro-3,5-dimethoxyphenyl)-N-(5-((4-ethylpiperazin-1-yl)methyl)pyridin-2-yl)-[1,2,4]triazolo[4′,3′:1,6]pyrido[2,3-d]pyrimidin-2-amine]",10 to 100 nM,> 10 nM,
"COc1cc(OC)c(Cl)c(-c2cc3cnc(Nc4ccc(N5CCN(C6CCN(C)CC6)CC5)cc4)nc3n3cnnc23)c1 [Compound 22, 6-(2-chloro-3,5-dimethoxyphenyl)-N-(4-(4-(1-methylpiperidin-4-yl)piperazin-1-yl)phenyl)-[1,2,4]triazolo[4′,3′:1,6]pyrido[2,3-d]pyrimidin-2-amine]",1 to 10 nM,,
"COc1cc(OC)c(Cl)c(-c2cc3cnc(Nc4ccc(N5CCN6CCC[C@H]6C5)cc4)nc3n3cnnc23)c1 [Compound 25, (S)-6-(2-chloro-3,5-dimethoxyphenyl)-N-(4-(hexahydropyrrolo[1,2-a]pyrazin-2(1H)-yl)phenyl)-[1,2,4]triazolo[4′,3′:1,6]pyrido[2,3-d]pyrimidin-2-amine]",,,1 to 10 nM
"COc1cc(OC)c(Cl)c(-c2cc3cnc(Nc4ccc(OCCN5CCCC5)cc4)nc3n3cnnc23)c1 [Compound 28, 6-(2-chloro-3,5-dimethoxyphenyl)-N-(4-(2-(pyrrolidin-1-yl)ethoxy)phenyl)-[1,2,4]triazolo[4′,3′:1,6]pyrido[2,3-d]pyrimidin-2-amine]",,,2.9 nM
"COc1cc(OC)c(Cl)c(-c2cc3cnc(Nc4ccc(OCCN5CCOCC5)cc4)nc3n3cnnc23)c1 [Compound 33, 6-(2-chloro-3,5-dimethoxyphenyl)-N-(4-(2-morpholinoethoxy)phenyl)-[1,2,4]triazolo[4′,3′:1,6]pyrido[2,3-d]pyrimidin-2-amine]",1 to 10 nM,,
"COc1cc(OC)c(Cl)c(-c2cc3cnc(Nc4ccc(C5CCN(C)CC5)cc4)nc3n3cnnc23)c1 [Compound 37, 6-(2-chloro-3,5-dimethoxyphenyl)-N-(4-(1-methylpiperidin-4-yl)phenyl)-[1,2,4]triazolo[4′,3′:1,6]pyrido[2,3-d]pyrimidin-2-amine]",1 to 10 nM,,
"COc1cc(OC)c(Cl)c(-c2cc3cnc(Nc4cccc(N5CCN6CCC[C@@H]6C5)c4)nc3n3cnnc23)c1 [Compound 38, (R)-6-(2-chloro-3,5-dimethoxyphenyl)-N-(3-(hexahydropyrrolo[1,2-a]pyrazin-2(1H)-yl)phenyl)-[1,2,4]triazolo[4′,3′:1,6]pyrido[2,3-d]pyrimidin-2-amine]",1 to 10 nM,,
"COc1cc(OC)c(Cl)c(-c2cc3cnc(Nc4ccc(N5CC(=O)N6CCC[C@@H]6C5)cc4)nc3n3cnnc23)c1 [Compound 40, (R)-2-(4-((6-(2-chloro-3,5-dimethoxyphenyl)-[1,2,4]triazolo[4′,3′:1,6]pyrido[2,3-d]pyrimidin-2-yl)amino)phenyl)hexahydropyrrolo[1,2-a]pyrazin-4(1H)-one]",> 100 nM,,
"COc1cc(OC)c(Cl)c(-c2cc3cnc(Nc4ccc(CN5CCOCC5)cc4)nc3n3cnnc23)c1 [Compound 45, 6-(2-chloro-3,5-dimethoxyphenyl)-N-(4-(morpholinomethyl)phenyl)-[1,2,4]triazolo[4′,3′:1,6]pyrido[2,3-d]pyrimidin-2-amine]",,,0.9 nM
"CNC1CCN(c2ccc(Nc3ncc4cc(-c5cc(OC)cc(OC)c5Cl)c5nncn5c4n3)cc2)CC1 [Compound 49, 6-(2-chloro-3,5-dimethoxyphenyl)-N-(4-(4-(methylamino)piperidin-1-yl)phenyl)-[1,2,4]triazolo[4′,3′:1,6]pyrido[2,3-d]pyrimidin-2-amine]",< 1 nM,,
"COc1cc(OC)c(Cl)c(-c2cc3cnc(Nc4ccc(N5C[C@@H](C)N[C@@H](C)C5)c(OC)c4)nc3n3cnnc23)c1 [Compound 55, 6-(2-chloro-3,5-dimethoxyphenyl)-N-(4-((3 S,5R)-3,5-dimethylpiperazin-1-yl)-3-methoxyphenyl)-[1,2,4]triazolo[4′,3′:1,6]pyrido[2,3-d]pyrimidin-2-amine]",1 to 10 nM,,
"COc1cc(OC)c(Cl)c(-c2cc3cnc(Nc4ccc(C(=O)N5C[C@@H](C)N[C@@H](C)C5)cc4)nc3n3cnnc23)c1 [Compound 59, (4-((6-(2-chloro-3,5-dimethoxyphenyl)-[1,2,4]triazolo[4′,3′:1,6]pyrido[2,3-d]pyrimidin-2-yl)amino)phenyl)((3 S,5R)-3,5-dimethylpiperazin-1-yl)methanone]",,,1.8 nM
"COc1cc(OC)c(Cl)c(-c2cc3cnc(Nc4ccc(C(=O)N5C[C@@H](C)N[C@@H](C)C5)cc4)nc3n3cnnc23)c1Cl [Compound 60, (4-((6-(2,6-dichloro-3,5-dimethoxyphenyl)-[1,2,4]triazolo[4′,3′:1,6]pyrido[2,3-d]pyrimidin-2-yl)amino)phenyl)((3S,5R)-3,5-dimethylpiperazin-1-yl)methanone]",< 1 nM,,
"CCN1CCC(c2ccc(Nc3ncc4cc(-c5cc6[nH]c(C)nc6cc5Cl)c5nncn5c4n3)cc2)CC1 [Compound 79, 6-(5-chloro-2-methyl-1H-benzo[d]imidazol-6-yl)-N-(4-(1-ethylpiperidin-4-yl)phenyl)-[1,2,4]triazolo[4′,3′:1,6]pyrido[2,3-d]pyrimidin-2-amine]",,,11.5 nM
"Cc1nc2ccc(-c3cc4cnc(Nc5ccc(N6CCOCC6)cc5)nc4n4cnnc34)c(Cl)c2[nH]1 [Compound 83, 6-(7-chloro-2-methyl-1H-benzo[d]imidazol-6-yl)-N-(4-morpholinophenyl)-[1,2,4]triazolo[4′,3′:1,6]pyrido[2,3-d]pyrimidin-2-amine]",> 100 nM,,
"C=CC(=O)N1CCN(CCc2nc3c(-c4cc(OC)cc(OC)c4Cl)cc4cnc(NC)nc4n3n2)CC1 [Compound 116, 1-(4-(2-(4-(2-chloro-3,5-dimethoxyphenyl)-8-(methylamino)-[1,2,4]triazolo[1′,5′:1,6]pyrido[2,3-d]pyrimidin-2-yl)ethyl)piperazin-1-yl)prop-2-en-1-one]",10 to 100 nM,,
"C=CC(=O)N1CCN(Cc2nc3c(-c4cc(OC)cc(OC)c4Cl)cc4cnc(NC)nc4n3n2)CC1 [Compound 117, 1-(4-((4-(2-chloro-3,5-dimethoxyphenyl)-8-(methylamino)-[1,2,4]triazolo[1′,5′:1,6]pyrido[2,3-d]pyrimidin-2-yl)methyl)piperazin-1-yl)prop-2-en-1-one]",10 to 100 nM,,
"C=CC(=O)N1CCN(CCc2nc3c(-c4c(Cl)c(OC)cc(OC)c4Cl)cc4cnc(NC)nc4n3n2)CC1 [Compound 124, 1-(4-(2-(4-(2,6-dichloro-3,5-dimethoxyphenyl)-8-(methylamino)-[1,2,4]triazolo[1′,5′:1,6]pyrido[2,3-d]pyrimidin-2-yl)ethyl)piperazin-1-yl)prop-2-en-1-one]",1 to 10 nM,,
"C=CC(=O)N1C[C@@H](C)N(CCCc2nc3c(-c4c(Cl)c(OC)cc(OC)c4Cl)cc4cnc(NC)nc4n3n2)[C@@H](C)C1 [Compound 131, 1-((3S,5R)-4-(3-(4-(2,6-dichloro-3,5-dimethoxyphenyl)-8-(methylamino)-[1,2,4]triazolo[1′,5′:1,6]pyrido[2,3-d]pyrimidin-2-yl)propyl)-3,5-dimethylpiperazin-1-yl)prop-2-en-1-one]",10 to 100 nM,,
"C=CC(=O)N1CCN(CCCc2nc3c(-c4c(Cl)c(OC)cc(OC)c4Cl)cc4cnc(NCC(F)(F)F)nc4n3n2)CC1 [Compound 137, 1-(4-(3-(4-(2,6-dichloro-3,5-dimethoxyphenyl)-8-((2,2,2-trifluoroethyl)amino)-[1,2,4]triazolo[1′,5′:1,6]pyrido[2,3-d]pyrimidin-2-yl)propyl)piperazin-1-yl)prop-2-en-1-one]",1 to 10 nM,,
"CNc1ncc2cc(-c3c(Cl)c(OC)cc(OC)c3Cl)c3nc(CCCN4CCN(C(=O)C(C#N)=CC(C)(C)C)CC4)nn3c2n1 [Compound 148, 2-(4-(3-(4-(2,6-dichloro-3,5-dimethoxyphenyl)-8-(methylamino)-[1,2,4]triazolo[1′,5′:1,6]pyrido[2,3-d]pyrimidin-2-yl)propyl)piperazine-1-carbonyl)-4,4-dimethylpent-2-enenitrile]",> 100 nM,,
